Experimental data from publication PMC7614775 (Nature chemical biology, 2022).

Tests used:
JAK1_C817 = JAK1_C817 (Homo sapiens, UniProt P23458); assay: Targeted MS-ABPP target engagement (TE50) in human cell lysates; format: binding
TYK2_C838 = TYK2_C838 (Homo sapiens, UniProt P29597); assay: Untargeted cysteine MS-ABPP, human PBMC lysates treated in vitro; format: binding; conditions: PBMC lysate in vitro, 1 h
C816 of mouse JAK1 = C816 of mouse JAK1 (Mus musculus, UniProt P52332); assay: Cysteine MS-ABPP in mouse splenocyte lysates; format: binding; conditions: 0.01 µM, 1 h
[1] = system: IFNα-stimulated STAT1 phosphorylation; assay: Phospho-STAT western blot in 22Rv1 cells expressing JAK1 variants; format: cell-based, human
[2] = target: JAK1 phosphorylation (pJAK1; Y1034/Y1035) (Homo sapiens, UniProt P23458); assay: JAK1 phosphorylation western blot in 22Rv1 cells expressing JAK1 variants; format: cell-based; conditions: WT- and C810A-JAK1
[3] = target: JAK1 phosphorylation (pJAK1; Y1034/Y1035) (Homo sapiens, UniProt P23458, C817A); assay: as above; format: cell-based; conditions: C817A-JAK1; 2 µM, 2 h
[4] = system: IFNα-stimulated STAT1 phosphorylation (TYK2-dependent); assay: Phospho-STAT western blot in 22Rv1 cells expressing TYK2 variants; format: cell-based, human; conditions: WT-TYK2 expressing 22Rv1 cells; 2 h
[5] = target: TYK2 phosphorylation (pTYK2) (Homo sapiens, UniProt P29597); assay: TYK2 phosphorylation western blot in 22Rv1 cells expressing TYK2 variants; format: cell-based; conditions: WT-TYK2
[6] = system: IL-2-dependent STAT5 phosphorylation; assay: Phospho-STAT western blot in mouse splenocytes; format: cell-based; conditions: 0.01–0.1 µM
GM-CSF-STAT5 signaling = assay: Phospho-STAT western blot in mouse splenocytes; format: cell-based
[7] = system: IFNγ-stimulated STAT1 phosphorylation; assay: Phospho-STAT western blot in 22Rv1 cells expressing JAK1 variants; format: cell-based, human
primary human T cells = assay: T-cell viability (Near IR Live/Dead stain); format: cell-based; conditions: 24 h
[8] = system: IFNα-stimulated human PBMCs; assay: Real-Time PCR of interferon-stimulated genes; format: cell-based; conditions: compound 2 h, then IFNα 16 h
[9] = target: recombinant JAK1 (WT, C810A, C817A) (Homo sapiens, UniProt P23458); assay: Gel-based ABPP in 22Rv1 cells; format: binding; conditions: pre-treatment 0.01–1 μM, 2 h, in situ
[10] = target: recombinant TYK2 (WT, C838A) (Homo sapiens, UniProt P29597); assay: Gel-based ABPP in 22Rv1 cells; format: binding; conditions: pre-treatment 0.01–1 μM, 2 h, in situ
Chain of recombinant TYK2 (WT, C838A) (P29597 whole entry C838A): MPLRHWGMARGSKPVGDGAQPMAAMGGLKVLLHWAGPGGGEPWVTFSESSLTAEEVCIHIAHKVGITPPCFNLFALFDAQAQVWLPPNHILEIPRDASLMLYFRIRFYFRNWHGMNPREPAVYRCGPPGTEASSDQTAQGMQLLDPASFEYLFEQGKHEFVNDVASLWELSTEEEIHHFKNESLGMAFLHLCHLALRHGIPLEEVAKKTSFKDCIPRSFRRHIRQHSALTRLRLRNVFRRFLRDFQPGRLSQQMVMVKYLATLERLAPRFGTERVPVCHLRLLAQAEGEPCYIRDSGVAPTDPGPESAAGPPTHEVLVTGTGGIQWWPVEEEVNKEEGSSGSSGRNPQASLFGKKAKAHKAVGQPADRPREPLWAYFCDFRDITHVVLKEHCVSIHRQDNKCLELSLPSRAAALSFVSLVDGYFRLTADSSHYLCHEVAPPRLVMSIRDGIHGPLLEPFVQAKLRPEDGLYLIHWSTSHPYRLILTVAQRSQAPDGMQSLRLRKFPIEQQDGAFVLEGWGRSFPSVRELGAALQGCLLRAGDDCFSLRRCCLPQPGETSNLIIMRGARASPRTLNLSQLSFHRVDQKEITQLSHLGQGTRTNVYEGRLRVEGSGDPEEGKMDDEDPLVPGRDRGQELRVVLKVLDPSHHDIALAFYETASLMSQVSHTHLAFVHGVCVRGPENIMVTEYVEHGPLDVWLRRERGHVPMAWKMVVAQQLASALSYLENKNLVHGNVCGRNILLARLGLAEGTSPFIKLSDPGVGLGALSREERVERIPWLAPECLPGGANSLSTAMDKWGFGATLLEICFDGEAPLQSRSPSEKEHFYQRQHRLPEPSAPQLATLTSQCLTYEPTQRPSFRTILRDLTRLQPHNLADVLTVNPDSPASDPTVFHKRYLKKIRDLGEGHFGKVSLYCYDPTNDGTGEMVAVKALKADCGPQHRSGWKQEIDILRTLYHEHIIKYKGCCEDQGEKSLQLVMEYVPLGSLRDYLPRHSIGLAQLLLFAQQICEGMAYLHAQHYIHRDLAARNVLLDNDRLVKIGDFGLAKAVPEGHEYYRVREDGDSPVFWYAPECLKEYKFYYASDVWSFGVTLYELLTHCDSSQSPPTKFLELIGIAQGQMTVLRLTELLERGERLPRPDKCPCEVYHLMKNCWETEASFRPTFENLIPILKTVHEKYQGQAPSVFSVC

Chain of TYK2_C838 (P29597 whole entry): as the sequence (P29597 whole entry C838A) above, with A838C counted along it
Chain of JAK1 phosphorylation (pJAK1; Y1034/Y1035) (Homo sapiens, UniProt P23458) (P23458 whole entry): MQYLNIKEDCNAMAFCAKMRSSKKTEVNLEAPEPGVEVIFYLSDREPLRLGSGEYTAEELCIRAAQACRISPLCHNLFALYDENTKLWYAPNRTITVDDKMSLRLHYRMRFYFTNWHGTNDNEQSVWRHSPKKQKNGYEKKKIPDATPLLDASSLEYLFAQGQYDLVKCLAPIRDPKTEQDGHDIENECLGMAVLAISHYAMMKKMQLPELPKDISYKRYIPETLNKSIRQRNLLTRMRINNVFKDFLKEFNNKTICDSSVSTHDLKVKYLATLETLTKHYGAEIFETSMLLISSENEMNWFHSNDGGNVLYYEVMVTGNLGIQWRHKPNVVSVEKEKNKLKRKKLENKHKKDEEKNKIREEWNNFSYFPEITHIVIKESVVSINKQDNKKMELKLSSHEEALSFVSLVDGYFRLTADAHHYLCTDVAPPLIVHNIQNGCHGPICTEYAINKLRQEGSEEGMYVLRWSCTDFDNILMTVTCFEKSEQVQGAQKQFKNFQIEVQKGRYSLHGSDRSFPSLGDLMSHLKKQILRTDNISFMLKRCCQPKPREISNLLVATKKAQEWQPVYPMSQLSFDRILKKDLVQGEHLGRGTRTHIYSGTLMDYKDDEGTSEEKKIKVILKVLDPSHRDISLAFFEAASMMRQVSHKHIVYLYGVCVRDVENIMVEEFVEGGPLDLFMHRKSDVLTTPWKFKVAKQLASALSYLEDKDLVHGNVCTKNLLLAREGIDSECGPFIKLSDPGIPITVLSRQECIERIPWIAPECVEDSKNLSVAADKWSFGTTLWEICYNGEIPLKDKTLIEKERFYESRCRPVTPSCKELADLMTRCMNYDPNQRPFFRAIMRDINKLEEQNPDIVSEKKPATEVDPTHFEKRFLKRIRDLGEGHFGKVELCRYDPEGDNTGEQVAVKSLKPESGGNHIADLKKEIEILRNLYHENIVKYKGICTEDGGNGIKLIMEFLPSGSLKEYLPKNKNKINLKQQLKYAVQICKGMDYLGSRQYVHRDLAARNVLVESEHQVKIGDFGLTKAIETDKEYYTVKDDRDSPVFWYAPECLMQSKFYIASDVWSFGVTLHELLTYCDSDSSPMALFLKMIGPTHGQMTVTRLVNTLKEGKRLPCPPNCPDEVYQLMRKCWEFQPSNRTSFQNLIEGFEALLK
Chain of JAK1_C817 (P23458 whole entry): as above
Chain of JAK1 phosphorylation (pJAK1; Y1034/Y1035) (Homo sapiens, UniProt P23458, C817A) (P23458 whole entry C817A): as the sequence (P23458 whole entry) above, with C817A counted along it
Chain of C816 of mouse JAK1 (P52332 whole entry): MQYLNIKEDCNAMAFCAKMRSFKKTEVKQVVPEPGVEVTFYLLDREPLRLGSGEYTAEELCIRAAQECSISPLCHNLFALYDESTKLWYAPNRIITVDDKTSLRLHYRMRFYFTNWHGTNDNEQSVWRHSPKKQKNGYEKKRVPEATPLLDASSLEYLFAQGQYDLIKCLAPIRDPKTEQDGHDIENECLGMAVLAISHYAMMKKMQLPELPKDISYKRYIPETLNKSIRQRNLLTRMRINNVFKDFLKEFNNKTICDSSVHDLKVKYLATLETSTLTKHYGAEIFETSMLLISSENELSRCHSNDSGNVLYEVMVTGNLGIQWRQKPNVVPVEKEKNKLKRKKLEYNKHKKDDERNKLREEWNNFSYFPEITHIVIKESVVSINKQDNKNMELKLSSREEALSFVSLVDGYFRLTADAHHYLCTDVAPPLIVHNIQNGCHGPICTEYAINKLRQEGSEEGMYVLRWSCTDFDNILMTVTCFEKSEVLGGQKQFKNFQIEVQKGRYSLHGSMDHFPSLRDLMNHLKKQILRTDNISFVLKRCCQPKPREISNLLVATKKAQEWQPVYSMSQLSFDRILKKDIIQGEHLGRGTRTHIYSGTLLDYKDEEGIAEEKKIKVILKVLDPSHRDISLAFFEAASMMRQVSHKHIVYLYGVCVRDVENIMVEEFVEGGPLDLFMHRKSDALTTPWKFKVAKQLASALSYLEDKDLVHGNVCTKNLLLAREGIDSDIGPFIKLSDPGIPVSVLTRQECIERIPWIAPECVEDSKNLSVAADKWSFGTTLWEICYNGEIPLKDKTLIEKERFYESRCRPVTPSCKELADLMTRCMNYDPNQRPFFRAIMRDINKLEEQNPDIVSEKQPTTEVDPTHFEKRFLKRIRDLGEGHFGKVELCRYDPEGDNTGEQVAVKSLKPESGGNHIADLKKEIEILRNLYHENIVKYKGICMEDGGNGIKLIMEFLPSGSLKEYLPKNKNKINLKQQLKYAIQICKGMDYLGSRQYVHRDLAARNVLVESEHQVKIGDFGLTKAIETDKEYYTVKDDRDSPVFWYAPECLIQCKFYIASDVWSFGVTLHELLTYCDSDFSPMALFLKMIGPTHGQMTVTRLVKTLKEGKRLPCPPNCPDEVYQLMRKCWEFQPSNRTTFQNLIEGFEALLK
Chain of TYK2 phosphorylation (pTYK2) (P29597 whole entry): as the sequence (P29597 whole entry C838A) above, with A838C counted along it
Chain of recombinant JAK1 (WT, C810A, C817A) (P23458 whole entry C810A/C817A): as the sequence (P23458 whole entry) above, with C810A, C817A counted along it

change of TE50 with preincubation time (JAK1_C817; Jurkat T-cell lysate, 10, 30 and 60 minutes): time-dependent decreases | potency compared with the corresponding diastereomers (5c and 5d) (JAK1_C817; TE50 and pSTAT pIC50): substantially more potent | Engagement Ratio (DMSO/VVD-118313) (TYK2_C838; 0.01 µM): 0.9 | %Engagement (TYK2_C838; 0.1 µM): 32% | Engagement Ratio (DMSO/VVD-118313) (TYK2_C838; 0.1 µM): 1.5 | %Engagement (TYK2_C838; 1 µM): 83% | Engagement Ratio (DMSO/VVD-118313) (TYK2_C838; 1 µM): 5.9 | %Engagement (TYK2_C838; 10 µM): 96% | Engagement Ratio (DMSO/VVD-118313) (TYK2_C838; 10 µM): 20.0 | engagement of mouse JAK1 C816 (% inhibition) (C816 of mouse JAK1): > 90% | blockade of JAK1 phosphorylation (maximal activity) ([2]; 0.05 µM): > 90% | effect on constitutive JAK1 phosphorylation ([2]; 2 µM, 2 h): completely blocked | effect on constitutive JAK1 phosphorylation [3]: did not affect | effect on phosphorylation of the TYK2 activation loop [5]: inhibited | competition of probe 6 reactivity with WT-TYK2 [10]: blocked probe 6 reactivity
SMILES: CS(=O)(=O)N1CC[C@H](C#CC(=O)N2CCC[C@@H](c3ccc(Cl)c(Cl)c3)C2)C1 [VVD-118313]
inhibition of IFNα-STAT1 phosphorylation ([1]; C817A-JAK1-expressing 22Rv1 cells, up to 2 µM): < 10% | effect on IFNα-stimulated pSTAT1 ([1]; WT- or C810A-JAK1-expressing 22Rv1 cells, 2 µM, 2 h): blocked | maximal inhibition of IFNα-STAT1 phosphorylation ([1]; WT- or C810A-JAK1-expressing 22Rv1 cells, at ~0.2 µM): > 80% | effect on IFNα-induced STAT1 phosphorylation [4]: blocked | effect on IL-2-dependent STAT5 phosphorylation [6]: inhibited | effect on GM-CSF-STAT5 signaling (GM-CSF-STAT5 signaling): sparing | blockade of IFNγ-stimulated STAT1 phosphorylation ([7]; K908E-JAK1-expressing 22Rv1 cells): ~ 40% | blockade of IFNγ-stimulated STAT1 phosphorylation ([7]; K908E/C817A-JAK1-expressing 22Rv1 cells): not observed | effect on IFNγ-stimulated STAT1 phosphorylation ([7]; WT-JAK1 transfected 22Rv1 cells, 1 μM, 2 h): Neither VVD-118313 nor the TYK2 inhibitor BMS-986165 altered | T-cell viability (primary human T cells): Neither compound affected | induction of interferon-stimulated genes (OAS1, MX1, IFIT1, CCL2) [8]: blocked the induction | competition of probe 6 labeling of WT-JAK1 [9]: blocked in a concentration-dependent manner
